Source: patent US20230150974A1 (Foghorn Therapeutics Inc., priority 2020, published 2023)

Experiments:
HiBit-BRG1 = biological target: T1, HiBit-BRG1 (Homo sapiens, UniProt P51532); test: HiBit-BRG1 cell-based degradation assay (Nano-Glo HiBiT Lytic Detection); conditions: HeLa cells expressing HiBit-BRG1 and LgBit, 24 h; for DC50: read-out: BRG1 HiBit Degradation IC50; for Dmax: read-out: BRG1 HiBit Degradation Maximum (%)
T1 construct: expressed in transfected cells
In short: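 Luminescence from reconstituted NanoBiT luciferase after lytic detection served as read-out of remaining HiBit-BRG1 in stable HeLa cells, which also express LgBit. Cells were seeded at 5000 per well and incubated with compound for 24 h. DMSO and a 2 μM known degrader defined the control range.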

HiBiT-BRM = biological target: T2, HiBiT-BRM (Homo sapiens, UniProt P51531); test: HiBiT-BRM cell-based degradation assay (Nano-Glo HiBiT Lytic Detection); conditions: HeLa cells expressing HiBiT-BRM, 24 h; for DC50: read-out: BRM HiBit Degradation IC50
T2 construct: expressed in transfected cells
T2 sequence (P51531 whole entry): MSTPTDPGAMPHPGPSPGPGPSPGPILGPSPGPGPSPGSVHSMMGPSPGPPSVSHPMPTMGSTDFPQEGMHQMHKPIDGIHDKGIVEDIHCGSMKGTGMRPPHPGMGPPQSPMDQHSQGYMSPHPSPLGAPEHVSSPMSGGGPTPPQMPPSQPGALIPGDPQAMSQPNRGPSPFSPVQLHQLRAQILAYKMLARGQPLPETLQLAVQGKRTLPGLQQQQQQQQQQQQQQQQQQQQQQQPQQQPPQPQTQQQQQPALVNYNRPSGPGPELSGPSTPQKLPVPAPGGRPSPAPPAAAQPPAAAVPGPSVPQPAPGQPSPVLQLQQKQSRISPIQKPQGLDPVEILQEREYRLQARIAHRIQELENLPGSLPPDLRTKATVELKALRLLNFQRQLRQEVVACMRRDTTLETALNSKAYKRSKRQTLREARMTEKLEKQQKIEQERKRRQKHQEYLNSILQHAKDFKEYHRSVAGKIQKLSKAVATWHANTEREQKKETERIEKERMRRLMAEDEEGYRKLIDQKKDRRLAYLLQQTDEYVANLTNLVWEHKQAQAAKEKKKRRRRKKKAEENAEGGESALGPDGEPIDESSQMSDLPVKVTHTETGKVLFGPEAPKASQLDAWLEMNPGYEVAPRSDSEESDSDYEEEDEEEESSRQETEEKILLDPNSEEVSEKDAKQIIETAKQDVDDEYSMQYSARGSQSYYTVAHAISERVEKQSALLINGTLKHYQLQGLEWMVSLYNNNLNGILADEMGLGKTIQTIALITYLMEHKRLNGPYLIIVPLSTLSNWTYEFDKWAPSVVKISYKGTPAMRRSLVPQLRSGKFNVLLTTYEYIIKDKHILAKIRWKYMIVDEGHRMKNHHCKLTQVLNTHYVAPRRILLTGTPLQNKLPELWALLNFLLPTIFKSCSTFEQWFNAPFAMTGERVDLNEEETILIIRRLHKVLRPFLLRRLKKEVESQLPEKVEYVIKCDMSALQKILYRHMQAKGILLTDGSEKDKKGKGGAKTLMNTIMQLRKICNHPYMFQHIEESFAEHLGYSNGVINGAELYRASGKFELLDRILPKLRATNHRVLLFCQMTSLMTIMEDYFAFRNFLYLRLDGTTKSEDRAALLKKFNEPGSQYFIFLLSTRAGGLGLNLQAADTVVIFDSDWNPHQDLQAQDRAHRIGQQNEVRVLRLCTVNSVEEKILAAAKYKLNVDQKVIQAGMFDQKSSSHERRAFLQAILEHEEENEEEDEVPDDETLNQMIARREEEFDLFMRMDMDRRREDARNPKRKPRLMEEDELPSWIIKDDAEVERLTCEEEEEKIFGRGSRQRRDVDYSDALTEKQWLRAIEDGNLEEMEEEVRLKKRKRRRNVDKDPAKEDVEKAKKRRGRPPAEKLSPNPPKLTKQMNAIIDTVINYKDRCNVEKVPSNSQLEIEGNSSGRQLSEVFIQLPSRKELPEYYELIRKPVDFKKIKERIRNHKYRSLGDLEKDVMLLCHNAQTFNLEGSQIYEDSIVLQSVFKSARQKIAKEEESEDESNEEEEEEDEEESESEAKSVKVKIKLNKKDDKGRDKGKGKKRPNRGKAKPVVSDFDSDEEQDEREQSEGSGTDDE
In short: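 HeLa cells stably expressing HiBiT-tagged BRM were treated for 24 h, then lysed with LgBiT-containing Nano-Glo reagent and luminescence read. % degradation scaled between DMSO (high control) and 2 μM reference BRM/BRG1 degrader (low control).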

T1 sequence (P51532 whole entry): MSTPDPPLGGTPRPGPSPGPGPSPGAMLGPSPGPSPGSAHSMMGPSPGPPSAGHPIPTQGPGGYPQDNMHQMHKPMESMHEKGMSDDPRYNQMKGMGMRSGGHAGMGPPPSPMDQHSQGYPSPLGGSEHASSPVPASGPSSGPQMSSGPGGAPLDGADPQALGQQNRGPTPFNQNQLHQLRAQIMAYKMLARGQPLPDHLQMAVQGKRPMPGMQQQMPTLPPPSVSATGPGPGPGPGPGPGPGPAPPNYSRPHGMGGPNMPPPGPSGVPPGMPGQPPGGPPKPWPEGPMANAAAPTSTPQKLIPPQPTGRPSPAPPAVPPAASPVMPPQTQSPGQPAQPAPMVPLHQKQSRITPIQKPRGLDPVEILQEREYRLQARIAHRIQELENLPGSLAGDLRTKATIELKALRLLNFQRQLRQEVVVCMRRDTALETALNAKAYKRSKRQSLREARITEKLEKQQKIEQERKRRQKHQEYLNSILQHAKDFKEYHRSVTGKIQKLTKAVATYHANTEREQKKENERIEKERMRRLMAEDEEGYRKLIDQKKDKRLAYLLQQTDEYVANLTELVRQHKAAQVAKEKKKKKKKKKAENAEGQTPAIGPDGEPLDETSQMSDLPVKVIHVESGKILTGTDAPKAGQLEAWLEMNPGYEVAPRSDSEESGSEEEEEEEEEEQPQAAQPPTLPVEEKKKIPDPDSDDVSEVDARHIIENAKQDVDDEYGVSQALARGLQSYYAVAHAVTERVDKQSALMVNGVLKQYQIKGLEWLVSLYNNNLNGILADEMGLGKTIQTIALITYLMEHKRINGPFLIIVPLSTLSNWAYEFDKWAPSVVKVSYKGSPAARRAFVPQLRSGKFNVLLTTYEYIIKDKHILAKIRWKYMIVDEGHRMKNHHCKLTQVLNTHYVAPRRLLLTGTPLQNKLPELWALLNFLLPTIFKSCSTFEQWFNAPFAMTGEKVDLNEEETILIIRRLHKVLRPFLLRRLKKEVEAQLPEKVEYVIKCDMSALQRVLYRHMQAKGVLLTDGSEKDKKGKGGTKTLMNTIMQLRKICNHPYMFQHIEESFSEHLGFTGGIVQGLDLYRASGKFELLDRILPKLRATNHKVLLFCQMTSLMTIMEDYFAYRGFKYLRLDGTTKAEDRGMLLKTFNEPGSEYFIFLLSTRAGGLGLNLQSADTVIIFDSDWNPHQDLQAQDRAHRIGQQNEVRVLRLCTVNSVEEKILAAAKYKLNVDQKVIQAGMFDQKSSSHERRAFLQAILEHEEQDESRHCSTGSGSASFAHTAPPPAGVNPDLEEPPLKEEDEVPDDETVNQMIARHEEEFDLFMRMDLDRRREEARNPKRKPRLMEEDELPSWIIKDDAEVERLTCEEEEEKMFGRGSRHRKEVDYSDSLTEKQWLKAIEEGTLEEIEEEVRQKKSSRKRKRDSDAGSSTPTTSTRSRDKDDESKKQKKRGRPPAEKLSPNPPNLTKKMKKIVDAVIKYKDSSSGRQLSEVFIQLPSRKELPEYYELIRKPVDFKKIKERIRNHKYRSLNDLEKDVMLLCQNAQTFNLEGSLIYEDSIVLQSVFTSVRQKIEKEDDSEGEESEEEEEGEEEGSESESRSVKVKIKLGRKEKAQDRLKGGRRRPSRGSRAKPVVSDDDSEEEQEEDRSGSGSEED

Row | DC50 (HiBit-BRG1) [nM] | Dmax (HiBit-BRG1) [%] | DC50 (HiBiT-BRM) [nM] | Structure (SMILES) | BRM HiBit Degradation Maximum (%) (HiBiT-BRM)
1 | > 1000 | < 50 | > 1000 | Nc1nnc(-c2cccc(Cl)c2O)cc1OCCc1ccc(CNCCCCCOc2cccc3c2C(=O)N(C2CCC(=O)NC2=O)C3=O)cc1 (centres unmarked) [Compound 124, 4-((5-((4-(2-((3-amino-6-(3-chloro-2-hydroxyphenyl)pyridazin-4-yl)oxy)ethyl)benzyl)amino)pentyl)oxy)-2-(2,6-dioxopiperidin-3-yl)isoindoline-1,3-dione] | C (“C” indicates maximum degradation <50%)
2 | > 1000 | < 50 | > 100 | Cc1ncsc1-c1ccc([C@H](C)NC(=O)[C@@H]2C[C@@H](O)CN2C(=O)[C@@H](c2cc(OCCNCCCCC(=O)NCc3ccc(CCOc4cc(-c5ccccc5O)nnc4N)cc3)no2)C(C)C)cc1 [Compound 218, (2S,4R)-1-((R)-2-(3-(2-((5-((4-(2-((3-amino-6-(2-hydroxyphenyl)pyridazin-4-yl)oxy)ethyl)benzyl)amino)-5-oxopentyl)amino)ethoxy)isoxazol-5-yl)-3-methylbutanoyl)-4-hydroxy-N-((S)-1-(4-(4-methylthiazol-5-yl)phenyl)ethyl)pyrrolidine-2-carboxamide] | B (“B” indicates maximum degradation ≥50%)
3 | > 100 | > 75 | > 10 | Cc1ncsc1-c1ccc([C@H](C)NC(=O)[C@@H]2C[C@@H](O)CN2C(=O)[C@@H](c2cc(OCCN3CCN(CC(=O)NCc4ccc(CCOc5cc(-c6ccccc6O)nnc5N)cc4)CC3)no2)C(C)C)cc1 [Compound 174, (2S,4R)-1-((R)-2-(3-(2-(4-(2-((4-(2-((3-amino-6-(2-hydroxyphenyl)pyridazin-4-yl)oxy)ethyl)benzyl)amino)-2-oxoethyl)piperazin-1-yl)ethoxy)isoxazol-5-yl)-3-methylbutanoyl)-4-hydroxy-N-((S)-1-(4-(4-methylthiazol-5-yl)phenyl)ethyl)pyrrolidine-2-carboxamide] | A (“A” indicates maximum degradation ≥75%)
4 | > 1000 | < 50 | > 1000 | Cc1ncsc1-c1ccc(CNC(=O)[C@@H]2C[C@@H](O)CN2C(=O)[C@@H](NC(=O)CCN2CCC(O)(C(=O)NCc3ccc(CCOc4cc(-c5ccccc5O)nnc4N)cc3)CC2)C(C)(C)C)cc1 [Compound 185, N-[[4-(2-[[3-amino-6-(2-hydroxyphenyl)pyridazin-4-yl]oxy]ethyl)phenyl]methyl]-4-hydroxy-1-(2-[[(2S)-1-[(2S,4R)-4-hydroxy-2-([[4-(4-methyl-1,3-thiazol-5-yl)phenyl]methyl]carbamoyl)pyrrolidin-1-yl]-3,3-dimethyl-1-oxobutan-2-yl]carbamoyl]ethyl)piperidine-4-carboxamide] | C (“C” indicates maximum degradation <50%)
5 | > 1000 | < 50 | > 1000 | Nc1nnc(-c2ccccc2O)cc1OCCc1ccc(C(=O)NCCS(=O)(=O)CCNc2cccc3c2C(=O)N(C2CCC(=O)NC2=O)C3=O)cc1 (centres unmarked) [Compound 55, 4-(2-[[3-amino-6-(2-hydroxyphenyl)pyridazin-4-yl]oxy]ethyl)-N-[2-(2-[[2-(2,6-dioxopiperidin-3-yl)-1,3-dioxoisoindol-4-yl]amino]ethanesulfonyl)ethyl]benzamide] | C (“C” indicates maximum degradation <50%)
6 | > 100 | > 75 | > 10 | Cc1ncsc1-c1ccc([C@H](C)NC(=O)[C@@H]2C[C@@H](O)CN2C(=O)[C@@H](c2cc(OCCN3CC4=C(C3)CN(C(=O)c3ccc(CCOc5cc(-c6ccccc6O)nnc5N)cc3)C4)no2)C(C)C)cc1 [Compound 213, (2S,4R)-1-((R)-2-(3-(2-(5-(4-(2-((3-amino-6-(2-hydroxyphenyl)pyridazin-4-yl)oxy)ethyl)benzoyl)-3,4,5,6-tetrahydropyrrolo[3,4-c]pyrrol-2(1H)-yl)ethoxy)isoxazol-5-yl)-3-methylbutanoyl)-4-hydroxy-N-((S)-1-(4-(4-methylthiazol-5-yl)phenyl)ethyl)pyrrolidine-2-carboxamide] | A (“A” indicates maximum degradation ≥75%)
7 | > 1000 | > 50 | > 100 | Cc1ncsc1-c1ccc([C@H](C)NC(=O)[C@@H]2C[C@@H](O)CN2C(=O)[C@@H](NC(=O)CN2CCC(OC3CCN(CCC(=O)NCc4ccc(CCOc5cc(-c6ccccc6O)nnc5N)cc4)CC3)CC2)C(C)(C)C)cc1 [Compound 258, (2S,4R)-1-((S)-2-(2-(4-((1-(3-((4-(2-((3-amino-6-(2-hydroxyphenyl)pyridazin-4-yl)oxy)ethyl)benzyl)amino)-3-oxopropyl)piperidin-4-yl)oxy)piperidin-1-yl)acetamido)-3,3-dimethylbutanoyl)-4-hydroxy-N-((S)-1-(4-(4-methylthiazol-5-yl)phenyl)ethyl)pyrrolidine-2-carboxamide] | A (“A” indicates maximum degradation ≥75%)
8 | > 1000 | < 50 | > 10 | Cc1ncsc1-c1ccc(CNC(=O)[C@@H]2C[C@@H](O)CN2C(=O)[C@@H](NC(=O)CCCCCCCCCCCCCC(=O)N(C)Cc2ccc(CCOc3cc(-c4ccccc4O)nnc3N)cc2)C(C)(C)C)cc1 [Compound 159, N1-(4-(2-((3-amino-6-(2-hydroxyphenyl)pyridazin-4-yl)oxy)ethyl)benzyl)-N15-((S)-1-((2S,4R)-4-hydroxy-2-((4-(4-methylthiazol-5-yl)benzyl)carbamoyl)pyrrolidin-1-yl)-3,3-dimethyl-1-oxobutan-2-yl)-N1-methylpentadecanediamide] | A (“A” indicates maximum degradation ≥75%)
9 | > 1000 | < 50 | > 100 | Nc1nnc(-c2ccccc2O)cc1OCCc1ccc(CNC(=O)CCCCOc2cccc3c2C(=O)N(C2CCC(=O)NC2=O)C3)cc1 (centres unmarked) [Compound 152, N-(4-(2-((3-amino-6-(2-hydroxyphenyl)pyridazin-4-yl)oxy)ethyl)benzyl)-5-((2-(2,6-dioxopiperidin-3-yl)-3-oxoisoindolin-4-yl)oxy)pentanamide] | A (“A” indicates maximum degradation ≥75%)
10 | > 1000 | < 50 | < 10 | Cc1ncsc1-c1ccc([C@H](C)NC(=O)[C@@H]2C[C@@H](O)CN2C(=O)[C@@H](c2cc(OCCN3CCC(OC4CN(C(=O)c5ccc(CCOc6cc(-c7ccccc7O)nnc6N)cc5)C4)CC3)no2)C(C)C)cc1 [Compound 253, (2S,4R)-1-((R)-2-(3-(2-(4-((1-(4-(2-((3-amino-6-(2-hydroxyphenyl)pyridazin-4-yl)oxy)ethyl)benzoyl)azetidin-3-yl)oxy)piperidin-1-yl)ethoxy)isoxazol-5-yl)-3-methylbutanoyl)-4-hydroxy-N-((S)-1-(4-(4-methylthiazol-5-yl)phenyl)ethyl)pyrrolidine-2-carboxamide] | A (“A” indicates maximum degradation ≥75%)
11 | > 1000 | < 50 | > 1000 | Nc1nnc(-c2ccccc2O)cc1OCCc1ccc(C(=O)NCCCCCCCCCCC(=O)NCc2ccc(S(=O)(=O)Nc3cccc4c(Cl)c[nH]c34)cc2)cc1 [Compound 11, 11-[[4-(2-[[3-amino-6-(2-hydroxyphenyl)pyridazin-4-yl]oxy]ethyl)phenyl]formamido]-N-([4-[(3-chloro-1H-indol-7-yl)sulfamoyl]phenyl]methyl)undecanamide] | C (“C” indicates maximum degradation <50%)
12 | > 1000 | < 50 | > 100 | Cc1ncsc1-c1ccc(CNC(=O)[C@@H]2C[C@@H](O)CN2C(=O)[C@@H](NC(=O)CCCCCCCCCC(=O)NCc2ccc(CCOc3cc(-c4ccccc4O)nnc3N)cc2)C(C)(C)C)cc1 [Compound 28, N′-[[4-(2-[[3-amino-6-(2-hydroxyphenyl)pyridazin-4-yl]oxy]ethyl)phenyl]methyl]-N-[(2S)-1-[(2S,4R)-4-hydroxy-2-([[4-(4-methyl-1,3-thiazol-5-yl)phenyl]methyl]carbamoyl)pyrrolidin-1-yl]-3,3-dimethyl-1-oxobutan-2-yl]undecanediamide] | A (“A” indicates maximum degradation ≥75%)
13 | > 1000 | < 50 | > 1000 | Cc1ncsc1-c1ccc(CNC(=O)[C@@H]2C[C@@H](O)CN2C(=O)[C@@H](NC(=O)CCN2CC3(CN(CCC(=O)NCc4ccc(CCOc5cc(-c6ccccc6O)nnc5N)cc4)C3)C2)C(C)(C)C)cc1 [Compound 188, (2S,4R)-1-[(2S)-2-(3-[6-[2-([[4-(2-[[3-amino-6-(2-hydroxyphenyl)pyridazin-4-yl]oxy]ethyl)phenyl]methyl]carbamoyl)ethyl]-2,6-diazaspiro[3.3]heptan-2-yl]propanamido)-3,3-dimethylbutanoyl]-4-hydroxy-N-[[4-(4-methyl-1,3-thiazol-5-yl)phenyl]methyl]pyrrolidine-2-carboxamide] | C (“C” indicates maximum degradation <50%)
14 | > 1000 | < 50 | > 1000 | Nc1nnc(-c2ccccc2O)cc1OCCc1ccc(C(=O)NCCCCCNc2cccc3c2C(=O)N(C2CCC(=O)NC2=O)C3=O)cc1 (centres unmarked) [Compound 50, 4-(2-((3-amino-6-(2-hydroxyphenyl)pyridazin-4-yl)oxy)ethyl)-N-(5-((2-(2,6-dioxopiperidin-3-yl)-1,3-dioxoisoindolin-4-yl)amino)pentyl)benzamide] | C (“C” indicates maximum degradation <50%)
